Measured values: patent US11427548B2 (Arvinas Operations, Inc., priority 2015, dated 2022)
Like-named read-outs stand apart in the source and are kept apart here.

Molecular target: T1, Androgen Receptor (Homo sapiens, UniProt P10275)
T1 construct: endogenous in cells; host or cells: VCaP cells
T1 sequence (P10275 1-920): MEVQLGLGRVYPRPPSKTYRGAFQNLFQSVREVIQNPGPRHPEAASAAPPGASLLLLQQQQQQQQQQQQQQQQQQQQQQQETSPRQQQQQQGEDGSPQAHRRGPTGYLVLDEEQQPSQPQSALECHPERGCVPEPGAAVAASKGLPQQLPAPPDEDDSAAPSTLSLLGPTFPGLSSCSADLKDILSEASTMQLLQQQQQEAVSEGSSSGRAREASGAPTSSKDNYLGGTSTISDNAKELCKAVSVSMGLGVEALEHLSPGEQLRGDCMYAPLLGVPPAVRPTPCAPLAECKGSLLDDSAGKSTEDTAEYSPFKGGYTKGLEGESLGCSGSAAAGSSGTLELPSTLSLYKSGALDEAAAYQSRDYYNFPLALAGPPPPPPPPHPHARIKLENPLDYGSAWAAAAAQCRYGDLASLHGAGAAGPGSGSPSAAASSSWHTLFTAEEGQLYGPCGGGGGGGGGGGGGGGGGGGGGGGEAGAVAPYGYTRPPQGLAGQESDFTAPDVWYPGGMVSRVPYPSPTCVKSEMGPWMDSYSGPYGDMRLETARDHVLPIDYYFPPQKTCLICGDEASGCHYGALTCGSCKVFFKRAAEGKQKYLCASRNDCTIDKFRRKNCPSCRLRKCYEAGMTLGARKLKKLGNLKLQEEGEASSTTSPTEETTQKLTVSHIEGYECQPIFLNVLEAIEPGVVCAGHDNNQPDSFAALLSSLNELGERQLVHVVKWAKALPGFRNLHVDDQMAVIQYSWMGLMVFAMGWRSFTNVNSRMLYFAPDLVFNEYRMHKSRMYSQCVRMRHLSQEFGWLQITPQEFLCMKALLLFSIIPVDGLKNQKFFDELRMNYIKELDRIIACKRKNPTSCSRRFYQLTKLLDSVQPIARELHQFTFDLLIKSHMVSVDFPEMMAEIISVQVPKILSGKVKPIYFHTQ
Experiment: Androgen Receptor ELISA assay (PathScan AR ELISA) in VCaP cells: AR degradation, Dmax and DC50
Format: cell-based
Summary of the method: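 After 24 h exposure of VCaP cells (charcoal-stripped serum, 0.1 nM R1881 agonist, 0.1% DMSO) to seven half-log compound concentrations, residual AR in lysates was measured by PathScan ELISA (TMB absorbance, 450 nm). Cells were plated at 30,000/well and grown at least 3 days beforehand.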

[1] = read-out: VCaP DC50; VCaP cells; Table 36
[2] = VCaP cells; Table 36; read-out: VCaP DC50
[3] = VCaP, read-out: VCaP Dmax (%), VCaP cells; Table 36

DC50 [2]	Dmax [3]	Dmax (VCaP, VCaP cells; Table 36; read-out: VCaP Dmax (%))	SMILES	Dmax (VCaP, read-out: VCaP Dmax (%))	DC50 [1]
–	–	–	Cc1ncsc1-c1ccc(CNC(=O)[C@@H]2C[C@@H](O)CN2C(=O)[C@H](C(C)C)n2cc(OC3CCN(c4ccc(-c5ccc(N6C(=S)N(c7ccc(C#N)c(C(F)(F)F)c7)C(=O)C6(C)C)cc5)cn4)CC3)cn2)cc1 [Example 598, 1-(2-(4-((1-(5-(4-(3-(4-cyano-3-(trifluoromethyl)phenyl)-5,5-dimethyl-4-oxo-2-thioxoimidazolidin-1-yl)phenyl)pyridin-2-yl)piperidin-4-yl)oxy)-1H-pyrazol-1-yl)-3-mehtylbutanoyl)-4-hydroxy-N-(4-(4-methylthiazol-5-yl)benzyl)pyrrolidine-2-carboxamide]	26 to 50%	> 501 nM
–	–	–	Cc1ncsc1-c1ccc(CNC(=O)[C@@H]2C[C@@H](O)CN2C(=O)[C@@H](C(C)C)n2cc(OC3CCN(c4ccc(-c5ccc(N6C(=S)N(c7ccc(C#N)c(C(F)(F)F)c7)C(=O)C6(C)C)cc5)cn4)CC3)cn2)cc1 [Example 599, (2S,4R)-1-((R)-2-(4-((1-(5-(4-(3-(4-cyano-3-(trifluoromethyl)phenyl)-5,5-dimethyl-4-oxo-2-thioxoimidazolidin-1-yl)phenyl)pyridin-2-yl)piperidin-4-yl)oxy)-1H-pyrazol-1-yl)-3-methylbutanoyl)-4-hydroxy-N-(4-(4-methylthiazol-5-yl)benzyl)pyrrolidine-2-carboxamide]	26 to 50%	> 501 nM
–	–	–	Cc1ncsc1-c1ccc([C@H](C)NC(=O)[C@@H]2C[C@@H](O)CN2C(=O)[C@H](C(C)C)n2cc(Oc3cccc(OCCCCCOc4ccc(N5C(=S)N(c6ccc(C#N)c(C(F)(F)F)c6)C(=O)C5(C)C)cc4)c3)cn2)cc1 [Example 600, (2S,4R)-1-((S)-2-(4-(3-((5-(4-(3-(4-cyano-3-(trifluoromethyl)phenyl)-5,5-dimethyl-4-oxo-2-thioxoimidazolidin-1-yl)phenoxy)pentyl)oxy)phenoxy)-1H-pyrazol-1-yl)-3-methylbutanoyl)-4-hydroxy-N-((S)-1-(4-(4-methylthiazol-5-yl)phenyl)ethyl)pyrroli-dine-2-carboxamide]	26 to 50%	> 501 nM
–	–	–	Cc1ncsc1-c1ccc(CNC(=O)[C@@H]2C[C@@H](O)CN2C(=O)[C@H](C(C)C)n2cc(Oc3cccc(OCCCCCOc4ccc(N5C(=S)N(c6ccc(C#N)c(C(F)(F)F)c6)C(=O)C5(C)C)cc4)c3)cn2)cc1 [Example 601, (2S,4R)-1-((S)-2-(4-(3-((5-(4-(3-(4-cyano-3-(trifluoromethyl)phenyl)-5,5-dimethyl-4-oxo-2-thioxoimidazolidin-1-yl)phenoxy)pentyl)oxy)phenoxy)-1H-pyrazol-1-yl)-3-methylbutanoyl)-4-hydroxy-N-(4-(4-methylthiazol-5-yl)benzyl)pyrrolidine-2-carboxamide]	< 25%	> 501 nM
> 501 nM	< 25%	–	Cc1ncsc1-c1ccc([C@H](C)NC(=O)[C@@H]2C[C@@H](O)CN2C(=O)[C@@H](C(C)C)n2cc(-c3ccnc(OC4CN(c5ncc(C(=O)NC6C(C)(C)C(Oc7ccc(C#N)c(Cl)c7)C6(C)C)cn5)C4)c3)cn2)cc1 (stereo partly drawn) [Example 603, N-(3-(3-chloro-4-cyanophenoxy)-2,2,4,4-tetramethylcyclobutyl)-2-(3-((4-(1-((R)-1-((2S,4R)-4-hydroxy-2-(((S)-1-(4-(4-methylthiazol-5-yl)phenyl)ethyl)carbam-oyl)pyrrolidin-1-yl)-3-methyl-1-oxobutan-2-yl)-1H-pyrazol-4-yl)pyridin-2-yl)oxy)azetidin-1-yl)pyrimidine-5-carboxamide]	–	–
< 50 nM	51 to 70%	–	Cc1ncsc1-c1ccc([C@H](C)NC(=O)[C@@H]2C[C@@H](O)CN2C(=O)[C@H](C(C)C)n2cc(-c3ccnc(OC4CN(c5ncc(C(=O)NC6C(C)(C)C(Oc7ccc(C#N)c(Cl)c7)C6(C)C)cn5)C4)c3)cn2)cc1 (stereo partly drawn) [Example 604, N-(3-(3-chloro-4-cyanophenoxy)-2,2,4,4-tetramethylcyclobutyl)-2-(3-((4-(1-((S)-1-((2S,4R)-4-hydroxy-2-(((S)-1-(4-(4-methylthiazol-5-yl)phenyl)ethyl)carbam-oyl)pyrrolidin-1-yl)-3-methyl-1-oxobutan-2-yl)-1H-pyrazol-4-yl)pyridin-2-yl)oxy)azetidin-1-yl)pyrimidine-5-carboxamide]	–	–
–	–	–	Cc1ncsc1-c1ccc([C@H](C)NC(=O)C2C[C@@H](O)CN2C(=O)[C@@H](NC(=O)c2cc3ccc(OC[C@H]4C[C@H](COc5ccc(N6C(=S)N(c7ccc(C#N)c(C(F)(F)F)c7)C(=O)C6(C)C)cc5)C4)cc3o2)C(C)(C)C)cc1 (stereo partly drawn) [Example 605, 1-(2-(6-((3-((4-(3-(4-cyano-3-(trifluoromethyl)phenyl)-5,5-dimethyl-4-oxo-2-thioxoimidazolidin-1-yl)phenoxy)methyl)cyclo-butyl)methoxy)benzo-furan-2-carboxamido)-3,3-dimethylbutanoyl)-4-hydroxy-N-(1-(4-(4-methylthiazol-5-yl)phenyl)ethyl)pyrroli-dine-2-carboxamide]	< 25%	> 501 nM
< 50 nM	–	51 to 70%	Cc1nccn1-c1ccc([C@H](C)NC(=O)C2C[C@@H](O)CN2C(=O)C(NC(=O)COCC2CCN(c3ccc(C(=O)N[C@H]4C(C)(C)[C@H](Oc5ccc(C#N)c(Cl)c5)C4(C)C)cn3)CC2)C(C)(C)C)cc1 (stereo partly drawn) [Example 606, N-((1r,3r)-3-(3-chloro-4-cyanophenoxy)-2,2,4,4-tetramethylcyclobutyl)-6-(4-((2-(((S)-1-((2S,4R)-4-hydroxy-2-(((S)-1-(4-(2-methyl-1H-imidazol-1-yl)phenyl)ethyl)carbam-oyl)pyrrolidin-1-yl)-3,3-dimethyl-1-oxobutan-2-yl)amino)-2-oxoethoxy)methyl)piper-idin-1-yl)nicotinamide]	–	–
> 501 nM	26 to 50%	–	Cc1ncsc1-c1ccc([C@H](C)NC(=O)[C@@H]2C[C@@H](O)CN2C(=O)[C@@H](NC(=O)COCCCCCNc2ccc(C(=O)N[C@H]3C(C)(C)[C@H](Oc4ccc(C#N)c(Cl)c4)C3(C)C)nn2)C(C)(C)C)cc1 [Example 607, N-((1r,3r)-3-(3-chloro-4-cyanophenoxy)-2,2,4,4-tetramethylcyclobutyl)-6-((5-(2-(((S)-1-((2S,4R)-4-hydroxy-2-(((S)-1-(4-(4-methylthiazol-5-yl)phenyl)ethyl)carbam-oyl)pyrrolidin-1-yl)-3,3-dimethyl-1-oxobutan-2-yl)amino)-2-oxoethoxy)pentyl)amino) pyridazine-3-carboxamide]	–	–
–	–	–	Cc1ncsc1-c1ccc([C@H](C)NC(=O)[C@@H]2C[C@@H](O)CN2C(=O)[C@H](C(C)C)n2cc(-c3ccnc(N4CC[C@H](Oc5ccc(N6C(=S)N(c7ccc(C#N)c(C(F)(F)F)c7)C(=O)C6(C)C)cc5)C4)c3)cn2)cc1 [Example 609]	< 25%	> 501 nM
–	–	–	Cc1ncsc1-c1ccc([C@H](C)NC(=O)[C@@H]2C[C@@H](O)CN2C(=O)[C@@H](C(C)C)n2cc(-c3ccnc(N4CC[C@H](Oc5ccc(N6C(=S)N(c7ccc(C#N)c(C(F)(F)F)c7)C(=O)C6(C)C)cc5)C4)c3)cn2)cc1 [Example 610, (2S,4R)-1-((R)-2-(4-(2-((S)-3-(4-(3-(4-cyano-3-(trifluoromethyl)phenyl)-5,5-dimethyl-4-oxo-2-thioxoimidazolidin-1-yl)phenoxy)pyrrolidin-1-yl)pyridin-4-yl)-1H-pyrazol-1-yl)-3-methylbutanoyl)-4-hydroxy-N-((S)-1-(4-(4-methylthiazol-5-yl)phenyl)ethyl)pyrroli-dine-2-carboxamide]	< 25%	> 501 nM
–	–	–	Cc1nccn1-c1ccc([C@H](C)NC(=O)[C@@H]2C[C@@H](O)CN2C(=O)[C@H](C(C)C)n2cc(OCCCOCCCCCOc3ccc(N4C(=S)N(c5ccc(C#N)c(C(F)(F)F)c5)C(=O)C4(C)C)cc3)cn2)cc1 [Example 611, (2S,4R)-1-((S)-2-(4-(3-((5-(4-(3-(4-cyano-3-(trifluoromethyl)phenyl)-5,5-dimethyl-4-oxo-2-thioxoimidazolidin-1-yl)phenoxy)pentyl)oxy)propoxy)-1H-pyrazol-1-yl)-3-methylbutanoyl)-4-hydroxy-N-((S)-1-(4-(2-methyl-1H-imidazol-1-yl)phenyl)ethyl)pyrrolidine-2-carboxamide]	< 25%	> 501 nM
